Tests used:
in vitro = conditions: African green monkey
DENV-2 16681 strain = experiment: DENV-2 antiviral assay (eGFP-labeled virus in Vero cells); format: cell-based, Dengue virus; conditions: for EC50: DENV-2 16681 eGFP, Vero cells, MOI 0.5, 3 days; for SI: SI=CC50/EC50, DENV-2 antiviral assay
Vero cells = conditions: African green monkey
DENV-1 strain TC974#666 = experiment: Tetravalent RT-qPCR assay, serotype 1; format: cell-based, Dengue virus
Protocol: (§1) The antiviral activity of the compounds of the invention was tested against DENV-1 strain TC974#666 (NCPV), DENV-2 strain 16681, DENV-3 strain H87 (NCPV) and DENV-4 strain H241 (NCPV) in a RT-qPCR assay. Therefore, Vero cells were infected with either DENV-1, or -2, or -3, or -4 in the presence or absence of test compounds. At day 3 post-infection, the cells were lysed and cell lysates were used to prepare cDNA of both a viral target (the 3′UTR of DENV; Table 2) and a cellular reference gene (1-actin, Table 2). Subsequently, a duplex real time PCR was performed on a Lightcycler480 instrument. The generated Cp value is inversely proportional to the amount of RNA expression of these targets. Inhibition of DENV replication by a test compound results in a shift of Cp's for the 3′UTR gene. On the other hand, if a test compound is toxic to the cells, a similar effect on β-actin expression will be observed. The comparative ΔΔCp method is used to calculate EC50, which is based on the relative gene expression of the target gene (3′UTR) normalized with the cellular housekeeping gene (β-actin). In addition, CC50 values are determined based on the Cp values acquired for the housekeeping gene β-actin.
(§2) The culture medium consisted of minimal essential medium supplemented with 2% of heat-inactivated fetal calf serum, 0.04% gentamycin (50 mg/mL) and 2 mM of L-glutamine. Vero cells, obtained from ECACC, were suspended in culture medium and 75 μL/well was added in 96-well plates (10000 cells/well), which already contain the antiviral compounds. […] In addition, each plate contains wells which are assigned as virus controls (containing cells and virus in the absence of compound) and cell controls (containing cells in the absence of virus and compound). Once the cells were added in the plates, the plates were incubated in a fully humidified incubator (37° C., 5% CO2) until the next day. Dengue viruses serotype-1, 2, 3 and 4 were diluted in order to obtain a Cp of ˜22-24 in the assay. Therefore, 25 μL of virus suspension was added to all the wells containing test compound and to the wells assigned as virus control. In parallel, 25 μL of culture medium was added to the cell controls. Next, the plates were incubated for 3 days in a fully humidified incubator (37° C., 5% CO2). After 3 days, the supernatant was removed from the wells and the cells were washed twice with ice-cold PBS (˜100 μL). The cell pellets within the 96-well plates were stored at −80° C. for at least 1 day. Next, RNA was extracted using the Cells-to-CT™ lysis kit, according to the manufacturer's guideline (Life Technologies). The cell lysates can be stored at −80° C. or immediately used in the reverse transcription step.
(§3) In preparation of the reverse transcription step, mix A (table 3A) was prepared and 7.57 μL/well was dispensed in a 96-well plate. After addition of 5 μL of the cell lysates, a five minute denaturation step at 75° C. was performed (table 3B). Afterwards, 7.43 μL of mix B was added (table 3C) and the reverse transcription step was initiated (table 3D) to generate cDNA.
(§4) Finally, a RT-qPCR mix was prepared, mix C (table 4A), and 22.02 μL/well was dispensed in 96-well LightCycler qPCR plates to which 3 μL of cDNA was added and the qPCR was performed according to the conditions in table 4B on a LightCycler 480.
(§5) Using the LightCycler software and an in-house LIMS system, dose response curves for each compound were calculated and the half maximal effective concentration (EC50) and the half maximal cytotoxic concentration (CC50) were determined (Tables 5-8).

DENV-2 strain 16681 = experiment: Tetravalent RT-qPCR assay, serotype 2; format: cell-based, Dengue virus
Protocol: as §1, §2, §3, §4, §5

DENV-3 strain H87 = experiment: Tetravalent RT-qPCR assay, serotype 3; format: cell-based, Dengue virus
Protocol: as §1, §2, §3, §4, §5

DENV-4 strain H241 = experiment: Tetravalent RT-qPCR assay, serotype 4; format: cell-based, Dengue virus
Protocol: as §1, §2, §3, §4, §5

[1] = Dengue virus, DENV2, Vero, 72 h

Compound | CC50 (in vitro) [µM] | EC50 (DENV-2 16681 strain; [1]) [nM] | SI (DENV-2 16681 strain) | EC50 (DENV-2 16681 strain) [nM] | also measured
COc1cc(NC(C(=O)N2CCc3ccc(C(F)(F)F)cc32)c2ccc(F)cc2OCCO)cc(S(C)(=O)=O)c1 (racemic) [Compound 1, 2-(4-fluoro-2-(2-hydroxyethoxy)phenyl)-2-((3-methoxy-5-(methylsulfonyl)phenyl)amino)-1-(6-(trifluoromethyl)indolin-1-yl)ethan-1-one] | 14 | 3.2 | 4397 | – | –
COc1cc(NC(C(=O)N2CCc3cc(OC)c(C(F)(F)F)cc32)c2ccc(F)cc2OCCO)cc(S(C)(=O)=O)c1 (racemic) [Compound 2, 2-(4-fluoro-2-(2-hydroxyethoxy)phenyl)-2-((3-methoxy-5-(methylsulfonyl)phenyl)amino)-1-(5-methoxy-6-(trifluoromethyl)indolin-1-yl)ethanone] | 12 | 1 | 13700 | – | –
COc1cc(NC(C(=O)N2CCc3ccc(C(F)(F)F)cc32)c2ccc(Cl)cc2OCCCC(=O)O)cc(S(C)(=O)=O)c1 (single isomer, unassigned) [Compound 7A] | 11 | – | 165 | 69 | –
COc1cc(NC(C(=O)N2CCc3ccc(OC(F)(F)F)cc32)c2ccc(Cl)cc2OCCO)cc(S(C)(=O)=O)c1 (single isomer, unassigned) [Compound 6B] | – | – | 492 | 20 | CC50 (Vero cells): 10 µM
COc1cc(NC(C(=O)N2CCc3cc(OC)c(C(F)(F)F)cc32)c2ccc(Cl)cc2OCCO)cc(S(C)(=O)=O)c1 (racemic) [Compound 5, 2-(4-chloro-2-(2-hydroxyethoxy)phenyl)-2-((3-methoxy-5-(methylsulfonyl)phenyl)amino)-1-(5-methoxy-6-(trifluoromethyl)indolin-1-yl)ethanone] | 11 | 0.7 | 15700 | – | –
COc1cc(NC(C(=O)N2CCc3ccc(OC(F)(F)F)cc32)c2ccc(Cl)cc2OCCO)cc(S(C)(=O)=O)c1 (racemic) [Compound 6, 2-(4-chloro-2-(2-hydroxyethoxy)phenyl)-2-((3-methoxy-5-(methylsulfonyl)phenyl)amino)-1-(6-(trifluoromethoxy)indolin-1-yl)ethanone] | 3.6 | 0.43 | 7070 | – | –
COc1cc(NC(C(=O)N2CCc3ccc(OC(F)(F)F)cc32)c2ccc(Cl)cc2OCCCC(=O)O)cc(S(C)(=O)=O)c1 (single isomer, unassigned) [Compound 9A] | 12 | – | 93 | 120 | –
COc1cc(NC(C(=O)N2CCc3cc(OC)c(C(F)(F)F)cc32)c2ccc(Cl)cc2OCCCC(=O)O)cc(S(C)(=O)=O)c1 (single isomer, unassigned) [Compound 8A] | 12 | – | 126 | 95 | –
COc1cc(NC(C(=O)N2CCc3cc(OC)c(C(F)(F)F)cc32)c2ccc(Cl)cc2OCCO)cc(S(C)(=O)=O)c1 (single isomer, unassigned) [Compound 5A] | 16 | – | 210 | 76 | –
COc1cc(NC(C(=O)N2CCc3cc(OC)c(C(F)(F)F)cc32)c2ccc(F)cc2OCCO)cc(S(C)(=O)=O)c1 (single isomer, unassigned) [Compound 2B] | – | – | 105 | 170 | CC50 (Vero cells): 18 µM
COc1cc(NC(C(=O)N2CCc3ccc(OC(F)(F)F)cc32)c2ccc(F)cc2OCCO)cc(S(C)(=O)=O)c1 (racemic) [Compound 3, 2-(4-fluoro-2-(2-hydroxyethoxy)phenyl)-2-((3-methoxy-5-(methylsulfonyl)phenyl)amino)-1-(6-(trifluoromethoxy)indolin-1-yl)ethanone] | 7.9 | 0.74 | 10700 | – | –
COc1cc(NC(C(=O)N2CCc3ccc(C(F)(F)F)cc32)c2ccc(Cl)cc2OCCO)cc(S(C)(=O)=O)c1 (racemic) [Compound 4, 2-(4-chloro-2-(2-hydroxyethoxy)phenyl)-2-((3-methoxy-5-(methylsulfonyl)phenyl)amino)-1-(6-(trifluoromethyl)indolin-1-yl)ethanone] | 7.7 | 0.66 | 11600 | – | –
COc1cc(NC(C(=O)N2CCc3ccc(OC(F)(F)F)cc32)c2ccc(F)cc2OCCO)cc(S(C)(=O)=O)c1 (single isomer, unassigned) [Compound 3A] | 11 | – | 19 | 570 | –
COc1cc(NC(C(=O)N2CCc3cc(OC)c(C(F)(F)F)cc32)c2ccc(F)cc2OCCO)cc(S(C)(=O)=O)c1 (single isomer, unassigned) [Compound 2A] | 9.6 | – | 16400 | 0.93 | EC50 (DENV-1 strain TC974#666; Dengue virus, DENV1, 72 h, RT-qPCR serotype 1 TC974#666, Vero cells, day 3): 4.6 nM; SI (DENV-1 strain TC974#666; RT-qPCR serotype 1 TC974#666): >981; EC50 (DENV-2 strain 16681; Dengue virus, DENV2, 72 h, RT-qPCR serotype 2 16681, Vero cells, day 3): 1.3 nM; SI (DENV-2 strain 16681; RT-qPCR serotype 2 16681): 4910; EC50 (DENV-3 strain H87; Dengue virus, DENV3, 72 h, RT-qPCR serotype 3 H87, Vero cells, day 3): 20 nM; SI (DENV-3 strain H87; RT-qPCR serotype 3 H87): >157; EC50 (DENV-4 strain H241; Dengue virus, DENV4, 72 h, RT-qPCR serotype 4 H241, Vero cells, day 3, read-out: EC50): 100 nM; SI (DENV-4 strain H241; RT-qPCR serotype 4 H241): 35
COc1cc(NC(C(=O)N2CCc3ccc(C(F)(F)F)cc32)c2ccc(Cl)cc2OCCCC(=O)O)cc(S(C)(=O)=O)c1 (racemic) [Compound 7, 4-(5-chloro-2-(1-((3-methoxy-5-(methylsulfonyl)phenyl)amino)-2-oxo-2-(6-(trifluoromethyl)indolin-1-yl)ethyl)phenoxy)butanoic acid] | 13 | 0.58 | 21800 | – | –
COc1cc(NC(C(=O)N2CCc3ccc(OC(F)(F)F)cc32)c2ccc(Cl)cc2OCCCC(=O)O)cc(S(C)(=O)=O)c1 (racemic) [Compound 9, 4-(5-chloro-2-(1-((3-methoxy-5-(methylsulfonyl)phenyl)amino)-2-oxo-2-(6-(trifluoromethoxy)indolin-1-yl)ethyl)phenoxy)butanoic acid] | 12 | 0.31 | 40200 | – | –
COc1cc(NC(C(=O)N2CCc3ccc(C(F)(F)F)cc32)c2ccc(Cl)cc2OCCO)cc(S(C)(=O)=O)c1 (single isomer, unassigned) [Compound 4B] | – | – | 693 | 16 | CC50 (Vero cells): 11 µM
COc1cc(NC(C(=O)N2CCc3cc(OC)c(C(F)(F)F)cc32)c2ccc(Cl)cc2OCCCC(=O)O)cc(S(C)(=O)=O)c1 (racemic) [Compound 8, 4-(5-chloro-2-(1-((3-methoxy-5-(methylsulfonyl)phenyl)amino)-2-(5-methoxy-6-(trifluoromethyl)indolin-1-yl)-2-oxoethyl)phenoxy)butanoic acid] | 14 | 1.9 | 7460 | – | –
COc1cc(NC(C(=O)N2CCc3ccc(C(F)(F)F)cc32)c2ccc(F)cc2OCCO)cc(S(C)(=O)=O)c1 (single isomer, unassigned) [Compound 1A] | – | – | 4.8 | 2400 | CC50 (Vero cells): 12 µM
